Consider 21 compounds from publication PMC8704880, “Secondary Metabolites with Cytotoxic Activities from Streptomyces sp. BM-8 Isolated from the Feces of Equus quagga” (Molecules, 2021).

Series [1] concerns HT-29, MCF-7, A375, K562 and NCM460 cell lines. Description: MTT cytotoxicity assay, whole panel of cell lines. In kind it is cell-based, human. The conditions noted are these: for cytotoxic activity toward the tested cell lines (in words): all tested cell lines; for IC50: Homo sapiens, range over all tested cell lines, read-out: IC50 values ranging over the tested cell lines. On the procedure:
(§1) The cytotoxic activity of the compounds on cancer cell lines, including HT-29, MCF-7, A375, K562, andNCM460cell lines, was measured using the MTT assay with a small modification. Briefly, cells were plated in 96-well plates at a density of 1 × 10^4 cells per well and allowed to grow overnight, then the medium was replaced with fresh RPMI1640 medium containing serially diluted compounds, and the cells were further incubated at 37 °C with 5% CO2 for 48 h. In this experiment, 1 and 6 were diluted into six different series concentrations from 10 μg/mL to 0.0097 μg/mL with 4× dilution each, while 2 and 3 were diluted from 500 μg/mL to 2.06 μg/mL, and 4, 5, and 7 from 300 μg/mL to 1.23 μg/mL with 3× dilution each. Paclitaxel, a clinical medication used as a positive control, was diluted from 100 μg/mL to 3.125 μg/mL with […]. HT-29, MCF-7, and A375 were all cultured in serum-free RPMI1640, while the K562 was cultured in DMEM containing FBS throughout this experiment. The culture medium was removed after the incubation, and then 100 μL of the 5 mg/mL MTT solution was added to each well and further incubated at 37 °C for 4 h. Finally, the supernatants were removed, and 150 μL of dimethyl sulfoxide (DMSO) was added to each well. After shaking the plates for 10 min at room temperature, the optical density value was measured spectrophotometrically at 570 nm using the microplate reader. The IC50 value (50% inhibitory concentration) was determined to evaluate the cell viability of these cell lines. In this experiment, Graph Pad Prism 5software (San Diego, CA, USA) was used to calculate the half inhibitory concentration (IC50) values. Each experiment was independently repeated at least three times and represented as the means ± standard deviation (SD).

The test system of series [2] is MCF-7 human breast cancer cell line. Description: MTT cytotoxicity assay, MCF-7. In kind it is cell-based. The conditions noted are these: MCF7, 48 h, read-out: IC50 (Means ± SD) MCF-7. On the procedure:
as §1

Series [3] has as its system HT-29 human colon cancer cell line. The series is described as follows: MTT cytotoxicity assay, HT-29. The conditions noted are these: 48 h, read-out: IC50 (Means ± SD) HT-29. In kind it is cell-based. The method, then: as §1
In general terms: Tetrazolium assays rely on reduction of a dye to a coloured formazan, in cell work by metabolically active cells.

The subject of series [4] is NCM460 human normal colon epithelial cell line. Description: MTT cytotoxicity assay, NCM460. In kind it is cell-based. The conditions noted are these: 48 h, read-out: IC50 (Means ± SD) NCM460. On the procedure: as §1
Series [5] has as its system K562 human chronic myeloid leukemia cell line. The series is described as follows: MTT cytotoxicity assay, K562. In kind it is cell-based. The conditions noted are these: 48 h, read-out: IC50 (Means ± SD) K562. On the procedure:
as §1

Series [6] has as its system A375 human malignant melanoma cell line. Description: MTT cytotoxicity assay, A375. The conditions noted are these: A-375, 48 h, read-out: IC50 (Means ± SD) A375. In kind it is cell-based. The method, then: as §1
Setting [7] is: medium containing FBS, NA = not active.

SMILES strings stand for the structures. Read-outs that look alike come from different tables or passages of the source.

As a reminder, the IC50 is the concentration at which inhibition is half-maximal. Regarding `CCC[C@H](CC1CCC([C@H](C)C(=O)O)O1)O[Si](C)(C)C(C)(C)C` (some centres unmarked) [Compound 20], the “cytotoxic activity toward the tested cell lines (in words)” value in series [1] is on record as “broad toxicity”. In addition, the 50% inhibitory concentration (IC50) in series [2] (medium without FBS) stood at 284.3 ± 1.24 µM; in series [3] (medium without FBS), 356 ± 7.67 µM; in series [4] (normal colon epithelial cells), 37 ± 1.39 µM; in series [5] (setting [7]), 323 ± 5.94 µM; in series [6] (medium without FBS) it was 215 ± 0.76 µM.
As for `CCOC(=O)[C@@H](C)[C@@H]1CC[C@H](C[C@H](O)CC)O1` [Compound 4, ethyl homononactate], the IC50 in series [2] (medium without FBS) stood at 39.6 ± 2.57 µM; in series [3] (medium without FBS), 11.8 ± 1.83 µM; in series [4] (normal colon epithelial cells), 249 ± 4.22 µM; in series [5] (setting [7]), 12.3 ± 0.54 µM; in series [6] (medium without FBS) it was 65.09 ± 0.62 µM.
As to `CC(=O)O[C@H]1C(=O)[C@@]2(C)[C@H]([C@H](OC(=O)c3ccccc3)[C@]3(O)C[C@H](OC(=O)[C@H](O)[C@@H](NC(=O)c4ccccc4)c4ccccc4)C(C)=C1C3(C)C)[C@]1(OC(C)=O)CO[C@@H]1C[C@@H]2O` [Paclitaxel, reference compound], the half-maximal inhibitory concentration (IC50) was 0.0138 ± 0.00212 µM in series [2] (positive control); 0.00569 ± 0.00132 µM in series [3] (positive control); 0.0182 ± 0.00234 µM in series [4] (positive control); 0.00931 ± 0.00188 µM in series [5] (positive control); 0.0458 ± 0.00179 µM in series [6] (positive control).
Take `CC[C@@H](O)CC1CCC([C@H](C)C(=O)Nc2nc3ccccc3s2)O1` (some centres unmarked) [Compound 19]: the IC50 was determined as 270.3 ± 1.09 µM in series [2] (medium without FBS), 169 ± 4.2 µM in series [3] (medium without FBS), 80.1 ± 3.82 µM in series [4] (normal colon epithelial cells) and 128.5 ± 0.48 µM in series [6] (medium without FBS).
Turning to `CC[C@@H](O)CC1CCC([C@H](C)C(=O)Oc2ccc(-c3ccccc3)cc2)O1` (some centres unmarked) [Compound 16], the half-maximal inhibitory concentration (IC50) in series [2] (medium without FBS) turned out to be 156 ± 3.56 µM; in series [3] (medium without FBS), 165.1 ± 1.23 µM; in series [4] (normal colon epithelial cells), 110 ± 1.36 µM; in series [5] (setting [7]), 105 ± 2.58 µM; in series [6] (medium without FBS), 67.32 ± 0.25 µM.
`CC[C@@H](O)CC1CCC([C@H](C)C(=O)Oc2ccc(C=O)cc2OC)O1` (some centres unmarked) [Compound 15]: the IC50 was found to be 531 ± 5.46 µM in series [3] (medium without FBS), 175 ± 3.28 µM in series [5] (setting [7]) and 175 ± 6.11 µM in series [6] (medium without FBS).
Turning to `CCOC(=O)[C@@H](C)C1CCC(C[C@@H](C)O)O1` (some centres unmarked) [Compound 8], the IC50 in series [2] (medium without FBS) turned out to be 847 ± 39.5 µM; in series [3] (medium without FBS) it was 441.3 ± 1.65 µM; in series [4] (normal colon epithelial cells), 164 ± 3.09 µM; in series [6] (medium without FBS), 445.9 ± 4.1 µM.
For the compound `CC[C@H](O)CC(=O)CC[C@H](O)C(C)C(=O)O` (some centres unmarked) [Compound 1], in series [1], the “cytotoxic activity toward the tested cell lines (in words)” value is recorded as “less activity”. Besides, the concentration for half-maximal inhibition (IC50) was found to be 5.44 ± 1.33 µM in series [2] (medium without FBS); 1.98 ± 1.04 µM in series [3] (medium without FBS); 27.9 ± 4.7 µM in series [4] (normal colon epithelial cells); 1.56 ± 0.21 µM in series [5] (setting [7]); 45 ± 1.21 µM in series [6] (medium without FBS).
Take `CC[C@@H](O)C[C@H]1CC[C@@H]([C@H](C)C(=O)O[C@@H](CC)C[C@@H]2CC[C@H]([C@@H](C)C(=O)O)O2)O1` [Compound 5, homononactylhomononactate]: the IC50 in series [2] (medium without FBS) is 16.7 ± 1.08 µM; in series [3] (medium without FBS), 38.1 ± 2.35 µM; in series [4] (normal colon epithelial cells) it was 33.3 ± 3.31 µM; in series [5] (setting [7]) it was 14.2 ± 0.47 µM; in series [6] (medium without FBS), 30.7 ± 0.93 µM.
Regarding `CCCCCCCCCCCCCCCCCCOC(=O)[C@@H](C)C1CCC(C[C@H](O)CC)O1` (some centres unmarked) [Compound 13], the IC50 in series [2] (medium without FBS) came out at 362.4 ± 0.96 µM; in series [3] (medium without FBS) it was 322 ± 4.17 µM; in series [4] (normal colon epithelial cells) it was 299.3 ± 1.77 µM; in series [5] (setting [7]), 313 ± 3.29 µM; in series [6] (medium without FBS), 217.6 ± 0.99 µM.
Take `CC[C@@H](O)CC1CCC([C@H](C)C(=O)OCc2ccccc2)O1` (some centres unmarked) [Compound 14]: the concentration for half-maximal inhibition (IC50) in series [1] is 21.1 to 89.9 µM; in series [2] (medium without FBS), 111 ± 3.89 µM; in series [3] (medium without FBS), 73.2 ± 1.05 µM; in series [4] (normal colon epithelial cells) it was 21.1 ± 3.66 µM; in series [5] (setting [7]), 41.4 ± 2.84 µM; in series [6] (medium without FBS), 89.9 ± 1.09 µM. In series [1], the “cytotoxic activity toward the tested cell lines (in words)” value is “broad toxicity”.
As for `CC[C@@H](O)CC1CCC([C@H](C)C(=O)OC(C)C)O1` (some centres unmarked) [Compound 9], in series [1], the “cytotoxic activity toward the tested cell lines (in words)” value was “broad toxicity”. The IC50 in series [2] (medium without FBS) amounted to 171 ± 5.08 µM; in series [3] (medium without FBS) it was 113 ± 3.68 µM; in series [4] (normal colon epithelial cells), 29 ± 3.68 µM; in series [5] (setting [7]), 69.4 ± 3.9 µM; in series [6] (medium without FBS), 115 ± 3.66 µM.
Take `C[C@H](C(=O)N1CCCCC1)C1CCC(C[C@@H](C)O)O1` (some centres unmarked) [Compound 17]: the IC50 in series [2] (medium without FBS) stood at 390 ± 10 µM; in series [3] (medium without FBS), 563 ± 7.35 µM; in series [4] (normal colon epithelial cells) it was 180 ± 7.88 µM; in series [5] (setting [7]), 339 ± 1.23 µM; in series [6] (medium without FBS) it was 199.1 ± 1.9 µM.
Turning to `CCCCCCCCCCOC(=O)[C@@H](C)C1CCC(C[C@@H](C)O)O1` (some centres unmarked) [Compound 11], the IC50 in series [1] was 24.3 to 44.2 µM; in series [2] (medium without FBS) it was 34.1 ± 1.87 µM; in series [3] (medium without FBS), 43.2 ± 2.84 µM; in series [4] (normal colon epithelial cells), 44.2 ± 0.64 µM; in series [5] (setting [7]), 38.2 ± 0.7 µM; in series [6] (medium without FBS), 24.29 ± 0.03 µM.
With `CC(C)[C@@H]1NC(=O)[C@H](C)OC(=O)[C@@H](C(C)C)NC(=O)[C@@H](C(C)C)OC(=O)[C@H](C(C)C)NC(=O)[C@H](C)OC(=O)[C@@H](C(C)C)NC(=O)[C@@H](C(C)C)OC(=O)[C@H](C(C)C)NC(=O)[C@H](C)OC(=O)[C@@H](C(C)C)NC(=O)[C@@H](C(C)C)OC1=O` [Compound 6, valinomycin], the “cytotoxic activity toward the tested cell lines (in words)” value in series [1] is reported as “significant cytotoxic activities”.
Consider `CCCCCCCCCCCCCCOC(=O)[C@@H](C)C1CCC(C[C@H](O)CC)O1` (some centres unmarked) [Compound 12], for which the IC50 worked out at 485.6 ± 3.18 µM in series [2] (medium without FBS); 209 ± 3.25 µM in series [3] (medium without FBS); 150 ± 4.03 µM in series [4] (normal colon epithelial cells); 187 ± 4.57 µM in series [5] (setting [7]); 127 ± 6.65 µM in series [6] (medium without FBS).
Taken in the same sequence, the figures for `CC(C)CC1NC(=O)C2CCCN2C1=O` (centres unmarked) [Compound 7, cyclo-(Pro-Leu)] were 78.8 ± 1.95 µM, 102 ± 2.66 µM, 776 ± 11.4 µM, 21.7 ± 0.35 µM and 51.1 ± 4.73 µM.
For `CC[C@@H](O)C[C@H]1CC[C@@H]([C@H](C)C(=O)O)O1` [Compound 3, homononactic acid], the half-inhibitory concentration (IC50) is 99.1 ± 2.66 µM in series [2] (medium without FBS); 39.9 ± 3.22 µM in series [3] (medium without FBS); 1027 ± 8.01 µM in series [4] (normal colon epithelial cells); 57 ± 1.88 µM in series [5] (setting [7]); 146 ± 2.01 µM in series [6] (medium without FBS).
Taken in the same sequence, the figures for `CCCCOC(=O)[C@@H](C)C1CCC(C[C@H](O)CC)O1` (some centres unmarked) [Compound 10] were 416.5 ± 3.9 µM, 326.8 ± 1.4 µM, 109 ± 3.6 µM, 285.1 ± 2.44 µM and 314.6 ± 0.57 µM.
Turning to `C[C@H](C(=O)O)[C@@H]1CC[C@H](C[C@@H](C)O)O1` [Compound 2, nonactic acid], the IC50 was determined as 289 ± 3.54 µM in series [2] (medium without FBS); 44.4 ± 2.77 µM in series [3] (medium without FBS); 1605 ± 14.4 µM in series [4] (normal colon epithelial cells); 83.6 ± 2.54 µM in series [5] (setting [7]); 185.9 ± 1.27 µM in series [6] (medium without FBS).
On to `CC[C@@H](O)CC1CCC([C@H](C)C(=O)Nc2ccccc2N)O1` (some centres unmarked) [Compound 18], for which the “cytotoxic activity toward the tested cell lines (in words)” value in series [1] is listed as “broad toxicity”. In addition, the IC50 in series [2] (medium without FBS) came out at 302.4 ± 1.83 µM; in series [3] (medium without FBS), 235.7 ± 1.31 µM; in series [4] (normal colon epithelial cells), 55.7 ± 7.65 µM; in series [5] (setting [7]) it was 402.9 ± 0.69 µM; in series [6] (medium without FBS) it was 108 ± 5.22 µM.
